Experimental data as given in US10487068B2, “Pyridazine derivatives as RORc modulators” (Genentech, Inc., priority 2015, dated 2019).

target: T1, RORc ligand binding domain (Homo sapiens, UniProt P51449); assay: In Vitro RORc Ligand Binding Assay; details: RORc IC50, radioligand 25-[3H]hydroxycholesterol 6 nM; 0.6 ug/mL RORc receptor; 3 h at 25° C.
T1 sequence (P51449 269-508 limits assumed): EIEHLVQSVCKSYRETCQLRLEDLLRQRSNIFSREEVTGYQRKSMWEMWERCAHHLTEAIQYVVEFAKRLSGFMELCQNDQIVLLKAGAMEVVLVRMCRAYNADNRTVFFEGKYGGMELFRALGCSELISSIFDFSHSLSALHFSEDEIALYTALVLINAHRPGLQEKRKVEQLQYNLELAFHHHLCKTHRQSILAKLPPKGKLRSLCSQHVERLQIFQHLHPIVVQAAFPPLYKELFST

SMILES	IC50 [nM]
Cc1nc(-c2ccnc([C@@]34CC[C@@H](c5cc(-c6c(F)cccc6F)nnc53)C4(C)C)n2)co1 [Example 275, 4-(2-((5R,8R)-3-(2,6-difluorophenyl)-9,9-dimethyl-5,6,7,8-tetrahydro-5,8-methanocinnolin-8-yl)pyrimidin-4-yl)-2-methyloxazole]	10.3
CC1(C)[C@H]2CC[C@]1(c1ccnc(-n3cnc(C(F)(F)F)n3)n1)c1nnc(-c3c(F)cccc3F)cc12 [Example 271]	4.4
CC1(C)[C@H]2CC[C@]1(c1ccnc(-n3cnc(C(N)=O)c3)n1)c1nnc(-c3c(F)cccc3F)cc12 [Example 261]	11.7
Cc1cc([C@@]23CC[C@@H](c4cc(-c5c(F)cccc5F)nnc42)C3(C)C)nc(N)n1 [Example 391]	44.6
CC1(C)[C@H]2CC[C@]1(c1cncc(C(=O)NCc3n[nH]c(=O)[nH]3)n1)c1nnc(-c3c(F)cccc3F)cc12 [Example 141, 6-((5R,8S)-3-(2,6-difluorophenyl)-9,9-dimethyl-5,6,7,8-tetrahydro-5,8-methanocinnolin-8-yl)-N-((5-oxo-4,5-dihydro-1H-1,2,4-triazol-3-yl)methyl)pyrazine-2-carboxamide]	113
CC1(C)[C@H]2CC[C@]1(c1cncc(C(=O)NCC3(O)CC3)n1)c1nnc(-c3c(F)cccc3F)cc12 [Example 124, 6-((5R,8S)-3-(2,6-difluorophenyl)-9,9-dimethyl-5,6,7,8-tetrahydro-5,8-methanocinnolin-8-yl)-N-((1-hydroxycyclopropyl)methyl)pyrazine-2-carboxamide]	50.8
CC[C@H](O)c1n[nH]c(-c2cccc([C@@]34CC[C@@H](c5cc(-c6c(F)cccc6F)nnc53)C4(C)C)n2)n1 [Example 322, (S)-1-(5-(6-((5R,8S)-3-(2,6-difluorophenyl)-9,9-dimethyl-5,6,7,8-tetrahydro-5,8-methanocinnolin-8-yl)pyridin-2-yl)-1H-1,2,4-triazol-3-yl)propan-1-ol]	11.5
CC1(C)[C@@H]2CC[C@@]1(c1nc(C#N)ncc1Cl)c1nnc(-c3c(F)cccc3F)cc12 [Example 245]	26.4
CC1(C)[C@H]2CC[C@]1(c1ccnc(C#N)c1C#N)c1nnc(-c3c(F)cccc3F)cc12 [Example 192, 4-((5R,8S)-3-(2,6-difluorophenyl)-9,9-dimethyl-5,6,7,8-tetrahydro-5,8-methanocinnolin-8-yl)pyridine-2,3-dicarbonitrile]	124
CC1(C)[C@H]2CC[C@]1(c1ccnc(-c3cn[nH]c3)n1)c1nnc(-c3c(F)cccc3F)cc12 [Example 253]	5.7
Cc1ncc(-c2ccnc([C@@]34CC[C@@H](c5cc(-c6c(F)cccc6F)nnc53)C4(C)C)c2)o1 [Example 175]	13.4
CC1(C)[C@H]2CC[C@]1(c1cnc(C#N)cn1)c1nnc(-c3c(F)cccc3F)cc12 [Example 15, 5-((5R,8S)-3-(2,6-difluorophenyl)-9,9-dimethyl-5,6,7,8-tetrahydro-5,8-methanocinnolin-8-yl)pyrazine-2-carbonitrile]	1310
Cc1nnc(-c2nccc([C@@]34CC[C@@H](c5cc(-c6c(F)cccc6F)nnc53)C4(C)C)n2)o1 [Example 138]	41.9
CC1(C)[C@H]2CC[C@]1(c1cccc(NC(=O)CO)n1)c1nnc(-c3c(F)cccc3F)cc12 [Example 112, N-(6-((5R,8S)-3-(2,6-difluorophenyl)-9,9-dimethyl-5,6,7,8-tetrahydro-5,8-methanocinnolin-8-yl)pyridin-2-yl)-2-hydroxyacetamide]	13.7
CC1(C)[C@H]2CC[C@]1(c1ccnc(-n3cccn3)n1)c1nnc(-c3c(F)cccc3F)cc12 [Example 211]	8.8
CC1(C)[C@H]2CC[C@]1(c1ccnc(N3CC(C(N)=O)C3)n1)c1nnc(-c3c(F)cccc3F)cc12 [Example 299]	24.1
CC1(C)[C@H]2CC[C@]1(c1cncc(NC(=O)C3COC3)n1)c1nnc(-c3c(F)cccc3F)cc12 [Example 103, N-(6-((5R,8S)-3-(2,6-difluorophenyl)-9,9-dimethyl-5,6,7,8-tetrahydro-5,8-methanocinnolin-8-yl)pyrazin-2-yl)oxetane-3-carboxamide]	29.1
CONC(=O)c1cccc([C@@]23CC[C@@H](c4cc(-c5c(F)cccc5F)nnc42)C3(C)C)n1 [Example 44, 6-((5R,8S)-3-(2,6-difluorophenyl)-9,9-dimethyl-5,6,7,8-tetrahydro-5,8-methanocinnolin-8-yl)-N-methoxypicolinamide]	14.9

SMILES	IC50 [nM]
C[C@@H](O)CNS(=O)(=O)c1cccc([C@@]23CC[C@@H](c4cc(-c5c(F)cccc5F)nnc42)C3(C)C)n1 [Example 200, 6-((5R,8S)-3-(2,6-difluorophenyl)-9,9-dimethyl-5,6,7,8-tetrahydro-5,8-methanocinnolin-8-yl)-N-((R)-2-hydroxypropyl)pyridine-2-sulfonamide]	11.7
CC(C)(O)c1coc(-c2cncc([C@@]34CC[C@@H](c5cc(-c6c(F)cccc6F)nnc53)C4(C)C)n2)n1 [Example 196, 2-(2-(6-((5R,8S)-3-(2,6-difluorophenyl)-9,9-diimethyl-5,6,7,8-tetrahydro-5,8-methanocinnolin-8-yl)pyrazin-2-yl)oxazol-4-yl)propan-2-ol]	6.5
CC(C)(O)c1cc(-c2cncc([C@@]34CC[C@@H](c5cc(-c6c(F)cccc6F)nnc53)C4(C)C)n2)no1 [Example 259, 2-(3-(6-((5R,8S)-3-(2,6-difluorophenyl)-9,9-dimethyl-5,6,7,8-tetrahydro-5,8-methanocinnolin-8-yl)pyrazin-2-yl)isoxazol-5-yl)propan-2-ol]	8.7
CC(=O)NCc1cncc([C@@]23CC[C@@H](c4cc(-c5c(F)cccc5F)nnc42)C3(C)C)n1 [Example 133, N-((6-((5R,8S)-3-(2,6-difluorophenyl)-9,9-dimethyl-5,6,7,8-tetrahydro-5,8-methanocinnolin-8-yl)pyrazin-2-yl)methyl)acetamide]	59.2
CC1(C)[C@H]2CC[C@]1(c1cncc(C(=O)NC[C@H](O)CO)n1)c1nnc(-c3c(F)cccc3F)cc12 [Example 108, 6-((5R,8S)-3-(2,6-difluorophenyl)-9,9-dimethyl-5,6,7,8-tetrahydro-5,8-methanocinnolin-8-yl)-N-((S)-2,3-dihydroxypropyl)pyrazine-2-carboxamide]	47.5
C[C@H](O)CNC(=O)c1cncc([C@@]23CC[C@@H](c4cc(-c5ccccc5F)nnc42)C3(C)C)n1 [Example 126, 6-((5R,8S)-3-(2-fluorophenyl)-9,9-dimethyl-5,6,7,8-tetrahydro-5,8-methanocinnolin-8-yl)-N-((S)-2-hydroxypropyl)pyrazine-2-carboxamide]	45.6
CC1(C)[C@@H]2CC[C@@]1(c1cccc(C(N)=O)n1)c1nnc(-c3c(F)cccc3F)cc12 [Example 48, 6-((5S,8R)-3-(2,6-difluorophenyl)-9,9-dimethyl-5,6,7,8-tetrahydro-5,8-methanocinnolin-8-yl)picolinamide]	15.6
CC1(C)[C@H]2CC[C@]1(c1ccnc(NS(C)(=O)=O)n1)c1nnc(-c3c(F)cccc3F)cc12 [Example 111]	41.4
CC1(C)[C@H]2CC[C@]1(c1cncc(C(=O)NCCO)c1)c1nnc(-c3c(F)cccc3F)cc12 [Example 194, 5-((5R,8S)-3-(2,6-difluorophenyl)-9,9-dimethyl-5,6,7,8-tetrahydro-5,8-methanocinnolin-8-yl)-N-(2-hydroxyethyl)nicotinamide]	24.2
CC(C)(O)Cn1ccc(-c2cncc([C@@]34CC[C@@H](c5cc(-c6c(F)cccc6F)nnc53)C4(C)C)n2)n1 [Example 407, 1-(3-(6-((5R,8S)-3-(2,6-difluorophenyl)-9,9-dimethyl-5,6,7,8-tetrahydro-5,8-methanocinnolin-8-yl)pyrazin-2-yl)-1H-pyrazol-1-yl)-2-methylpropan-2-ol]	7.6
CC1(C)[C@H]2CC[C@]1(c1ccnc(NCC3(O)COC3)n1)c1nnc(-c3c(F)cccc3F)cc12 [Example 132]	33.2
CC1(C)[C@H]2CC[C@]1(c1ccnc(NC(CO)CO)n1)c1nnc(-c3c(F)cccc3F)cc12 [Example 122]	38.6
CC(=O)Nc1ccnc([C@@]23CC[C@@H](c4cc(-c5c(F)cccc5F)nnc42)C3(C)C)c1 [Example 74]	118
CC1(C)[C@H]2CC[C@]1(c1cncc(-c3cn[nH]c3)n1)c1nnc(-c3c(F)cccc3F)cc12 [Example 205]	10.4
CC1(C)[C@H]2CC[C@]1(c1cncc(-c3ocnc3CO)n1)c1nnc(-c3c(F)cccc3F)cc12 [Example 142, (5-(6-((5R,8S)-3-(2,6-difluorophenyl)-9,9-dimethyl-5,6,7,8-tetrahydro-5,8-methanocinnolin-8-yl)pyrazin-2-yl)oxazol-4-yl)methanol]	17.2
C[C@H](O)Cn1ccc(-c2cncc([C@@]34CC[C@@H](c5cc(-c6c(F)cccc6F)nnc53)C4(C)C)n2)n1 [Example 423, (S)-1-(3-(6-((5R,8S)-3-(2,6-difluorophenyl)-9,9-dimethyl-5,6,7,8-tetrahydro-5,8-methanocinnolin-8-yl)pyrazin-2-yl)-1H-pyrazol-1-yl)propan-2-ol]	9.6
Cc1ncn(-c2cc([C@@]34CC[C@@H](c5cc(-c6c(F)cccc6F)nnc53)C4(C)C)cnn2)n1 [Example 389, (5R,8S)-3-(2,6-difluorophenyl)-9,9-dimethyl-8-(6-(3-methyl-1H-1,2,4-triazol-1-yl)pyridazin-4-yl)-5,6,7,8-tetrahydro-5,8-methanocinnoline]	91.2
CC1(C)[C@H]2CC[C@]1(c1ccnc(-n3cnnc3)n1)c1nnc(-c3c(F)cccc3F)cc12 [Example 151]	13.6
